Test results as given in ChEMBL document CHEMBL1149963, “Synthesis of a novel series of 3-oxo-2,4-dioxobicyclo[3.2.1]octanes: additional evidence for two thromboxane receptor subtypes” (Bioorg Med Chem Lett, 1994).

Experiments:
[1] = target: T1, Thromboxane A2 receptor (Homo sapiens, UniProt P21731); test: Activity against thromboxane A2 receptor evaluated by aggregation of human platelets at 0-10 uM; Not active
T1 sequence (P21731 whole entry): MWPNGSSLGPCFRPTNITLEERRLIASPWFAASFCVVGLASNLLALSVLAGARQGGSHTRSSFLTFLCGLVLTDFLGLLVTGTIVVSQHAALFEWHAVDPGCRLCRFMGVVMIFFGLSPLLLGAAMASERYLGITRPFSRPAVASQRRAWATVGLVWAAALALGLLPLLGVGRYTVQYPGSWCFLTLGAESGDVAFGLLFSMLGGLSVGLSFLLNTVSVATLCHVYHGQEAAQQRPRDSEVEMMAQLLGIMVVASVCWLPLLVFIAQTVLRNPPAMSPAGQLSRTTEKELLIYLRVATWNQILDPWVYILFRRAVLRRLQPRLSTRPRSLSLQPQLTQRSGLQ

[2] = target: T2, Thromboxane A2 receptor (Rattus norvegicus, UniProt P34978); test: Activity against thromboxane A2 receptor evaluated by contraction of isolated rat thoracic aorta; assay type: tissue-based
T2 sequence (P34978 whole entry): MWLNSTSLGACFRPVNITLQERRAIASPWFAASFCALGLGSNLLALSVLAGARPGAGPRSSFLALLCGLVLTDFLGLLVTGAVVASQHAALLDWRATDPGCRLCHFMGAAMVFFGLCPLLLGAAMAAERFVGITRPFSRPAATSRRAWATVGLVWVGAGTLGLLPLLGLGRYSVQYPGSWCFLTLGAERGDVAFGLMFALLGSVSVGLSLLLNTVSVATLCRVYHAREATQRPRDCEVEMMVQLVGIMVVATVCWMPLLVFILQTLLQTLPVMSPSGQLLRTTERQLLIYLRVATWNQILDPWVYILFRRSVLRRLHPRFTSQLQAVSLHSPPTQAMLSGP

EC50 [1]	EC50 [2] [nM]	SMILES
Not Active	324	CCCCCC(O)/C=C/[C@@H]1[C@@H](C/C=C\CCCC(=O)NC(C)C)[C@@H]2C[C@H]1OC(=O)O2 (stereo partly specified)
–	0.23	CCCCCC(O)/C=C/[C@@H]1[C@@H](C/C=C\CCCC(=O)O)[C@@H]2C[C@H]1OC(=O)O2 (stereo partly specified)
–	58	CCCCCC(O)/C=C/[C@@H]1[C@@H](C/C=C\CCCC(N)=O)[C@@H]2C[C@H]1OC(=O)O2 (stereo partly specified)
Not Active	1	CCCCCC(O)/C=C/[C@@H]1[C@@H](C/C=C\CCCCO)[C@@H]2C[C@H]1OC(=O)O2 (stereo partly specified)
